Values belong to the molecule of their own block, whether it stands above or below them.
Experiments:
[1] = Inhibition of IL-2 stimulated IFN-gamma production in BALB/c mouse at 40 mg/kg, po pretreated for 30 mins followed by IL-2 stimulation and measured after 4 hrs by ELISA; format: functional; conditions: time 4.5 hrs
[2] = target: T1, Tyrosine-protein kinase JAK2 (Homo sapiens, UniProt O60674); test: Inhibition of JAK2 signaling pathway in human CHEP cells assessed as inhibition of EPO-induced cell survival preincubated for 1 hr followed by EPO addition and measured after 48 hrs by CellTiter-Glo luminescent assay; format: toxicity, cell-based
[3] = target: T2, Cytochrome P450 3A4 (Homo sapiens, UniProt P08684); test: Inhibition of CYP3A4 (unknown origin) in absence of NADPH; format: ADME
[4] = target: T2, Cytochrome P450 3A4; test: Inhibition of CYP3A4 (unknown origin) in presence of NADPH; format: ADME
[5] = target: T3, Tyrosine-protein kinase SYK (Homo sapiens, UniProt P43405); test: Inhibition of SYK (unknown origin) assessed as reduction of IgM-stimulated ERK phosphorylation by Cell-based assay
[6] = target: T4, JAK3/JAK1 (Homo sapiens, UniProt P23458+P52333); test: Inhibition of JAK1/JAK3 in human primary T-cells assessed as reduction of IL-2 stimulated STAT5 phosphorylation preincubated for 1 hr followed by IL-2 stimulation for 15 mins by FACS method; format: cell-based, T-cell
[7] = Inhibition of IL-2 stimulated IFN-gamma production in BALB/c mouse at 5 mg/kg, po pretreated for 30 mins followed by IL-2 stimulation and measured after 4 hrs by ELISA; format: functional; conditions: time 4.5 hrs
[8] = target: T5, Cytochrome P450 1A2 (Homo sapiens, UniProt P05177); test: Inhibition of CYP1A2 (unknown origin); format: ADME
T5 sequence (P05177 whole entry): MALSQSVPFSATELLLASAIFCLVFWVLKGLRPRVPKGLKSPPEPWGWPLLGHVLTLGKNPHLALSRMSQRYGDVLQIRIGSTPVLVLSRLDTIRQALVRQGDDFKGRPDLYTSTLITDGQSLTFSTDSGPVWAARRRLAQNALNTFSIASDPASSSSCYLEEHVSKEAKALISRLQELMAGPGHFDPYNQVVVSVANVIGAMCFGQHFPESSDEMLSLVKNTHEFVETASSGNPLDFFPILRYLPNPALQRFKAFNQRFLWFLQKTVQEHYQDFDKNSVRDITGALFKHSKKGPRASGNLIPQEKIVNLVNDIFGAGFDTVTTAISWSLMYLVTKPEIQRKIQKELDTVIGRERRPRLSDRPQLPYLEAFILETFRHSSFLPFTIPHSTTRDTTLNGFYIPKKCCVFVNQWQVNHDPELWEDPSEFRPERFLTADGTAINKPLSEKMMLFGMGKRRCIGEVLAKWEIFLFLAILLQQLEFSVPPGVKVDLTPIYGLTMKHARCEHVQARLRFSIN

[9] = target: Tyrosine-protein kinase JAK1 (Homo sapiens, UniProt P23458); test: Inhibition of human recombinant GST-tagged JAK1 catalytic domain (866 to 1154 residues) expressed in baculovirus expression system by Z'-lyte assay
[10] = target: T1, Tyrosine-protein kinase JAK2; test: Inhibition of human recombinant GST-tagged JAK2 catalytic domain (809 to 1153 residues) expressed in baculovirus expression system by Z'-lyte assay; format: toxicity
[11] = target: T6, Tyrosine-protein kinase JAK3 (Homo sapiens, UniProt P52333); test: Inhibition of human recombinant GST-tagged JAK3 catalytic domain (781 to 1124 residues) expressed in baculovirus expression system by Z'-lyte assay
T6 sequence (P52333 whole entry): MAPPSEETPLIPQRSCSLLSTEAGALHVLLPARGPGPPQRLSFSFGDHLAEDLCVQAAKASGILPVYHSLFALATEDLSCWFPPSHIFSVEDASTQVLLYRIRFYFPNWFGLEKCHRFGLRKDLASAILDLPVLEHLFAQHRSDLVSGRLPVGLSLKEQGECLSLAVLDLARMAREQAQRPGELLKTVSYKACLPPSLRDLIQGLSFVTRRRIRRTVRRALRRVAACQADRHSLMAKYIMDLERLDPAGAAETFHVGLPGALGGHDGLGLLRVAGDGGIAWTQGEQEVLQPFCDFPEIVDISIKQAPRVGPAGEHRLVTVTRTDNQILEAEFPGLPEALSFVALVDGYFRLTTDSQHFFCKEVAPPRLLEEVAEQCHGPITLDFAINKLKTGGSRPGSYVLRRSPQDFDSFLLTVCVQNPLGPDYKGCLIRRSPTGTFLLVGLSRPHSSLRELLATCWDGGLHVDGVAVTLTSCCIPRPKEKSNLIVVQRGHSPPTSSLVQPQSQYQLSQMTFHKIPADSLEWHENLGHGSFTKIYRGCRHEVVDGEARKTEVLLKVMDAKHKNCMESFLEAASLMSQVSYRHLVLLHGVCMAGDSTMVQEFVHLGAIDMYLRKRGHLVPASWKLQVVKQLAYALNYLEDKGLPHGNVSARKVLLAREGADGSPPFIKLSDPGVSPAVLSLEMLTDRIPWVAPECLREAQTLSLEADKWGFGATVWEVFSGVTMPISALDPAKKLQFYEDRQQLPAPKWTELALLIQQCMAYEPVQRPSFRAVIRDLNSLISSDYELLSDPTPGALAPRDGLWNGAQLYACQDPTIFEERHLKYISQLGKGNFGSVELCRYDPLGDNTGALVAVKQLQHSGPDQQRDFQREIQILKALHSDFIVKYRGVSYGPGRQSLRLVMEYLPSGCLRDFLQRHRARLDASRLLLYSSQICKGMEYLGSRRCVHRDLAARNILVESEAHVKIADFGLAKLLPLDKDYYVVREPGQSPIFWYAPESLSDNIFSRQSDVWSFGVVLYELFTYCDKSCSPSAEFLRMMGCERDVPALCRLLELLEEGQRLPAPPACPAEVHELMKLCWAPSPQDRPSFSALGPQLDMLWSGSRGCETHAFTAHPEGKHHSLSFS

[12] = target: Non-receptor tyrosine-protein kinase TYK2 (Homo sapiens, UniProt P29597); test: Inhibition of human recombinant N-terminal GST-tagged TYK2 (833 to 1187 residues) expressed in baculovirus expression system by Z'-lyte assay
[13] = target: T4, JAK3/JAK1; test: Inhibition of JAK1/JAK3 signaling pathway in human primary T-cells assessed as reduction of IL-2 induced cell proliferation; format: cell-based
[14] = target: JAK1/TYK2 (Homo sapiens, UniProt P23458+P29597); test: Inhibition of JAK1/TYK2 signaling pathway in human primary T-cells assessed as reduction of IFN-alpha induced STAT1 phosphorylation; format: cell-based, T-cell
[15] = target: T1, Tyrosine-protein kinase JAK2; test: Inhibition of JAK2 signaling pathway in human UKE-1 cells assessed as reduction of cell proliferation; format: toxicity, cell-based
[16] = target: JAK2/TYK2 (Homo sapiens, UniProt O60674+P29597); test: Inhibition of JAK2/TYK2 signaling pathway in human primary T-cells assessed as reduction of IL-12 induced STAT4 phosphorylation; format: cell-based, T-cell
[17] = target: JAK2/JAK1 (Homo sapiens, UniProt O60674+P23458); test: Inhibition of JAK1/JAK2 signaling pathway in human U-937 cells assessed as reduction of IFN-gamma induced ICAM1 expression; format: cell-based
[18] = Inhibition of IL-2 stimulated IFN-gamma production in BALB/c mouse at 20 mg/kg, po pretreated for 30 mins followed by IL-2 stimulation and measured after 4 hrs by ELISA; format: functional; conditions: time 4.5 hrs
[19] = Inhibition of IL-2 stimulated IFN-gamma production in BALB/c mouse at 10 mg/kg, po pretreated for 30 mins followed by IL-2 stimulation and measured after 4 hrs by ELISA; format: functional; conditions: time 4.5 hrs
[20] = Inhibition of IL-2 stimulated IFN-gamma production in BALB/c mouse at 2.5 mg/kg, po pretreated for 30 mins followed by IL-2 stimulation and measured after 4 hrs by ELISA; format: functional; conditions: time 4.5 hrs
[21] = Oral bioavailability in Sprague-Dawley rat 5 mg/kg; format: ADME, organism-based; conditions: in vivo
[22] = Clearance in Sprague-Dawley rat 1 mg/kg, iv; format: ADME, organism-based; conditions: in vivo
[23] = target: T4, JAK3/JAK1; test: Inhibition of JAK1/JAK3 signaling pathway in human whole blood assessed as reduction of IL-2 induced STAT5 phosphorylation; format: tissue-based
[24] = species: Homo sapiens; test: Selectivity ratio of IC50 for inhibition of JAK2 signaling pathway in EPO-stimulated human CHEP cells to IC50 for inhibition of JAK1/JAK3 in human primary T-cells assessed as reduction of IL-2 stimulated STAT5 phosphorylation
[25] = target: T3, Tyrosine-protein kinase SYK; test: Inhibition of human full length recombinant N-terminal GST-tagged SYK expressed in baculovirus expression system at 250 nM by Z'-lyte assay

T1 sequence (O60674 whole entry): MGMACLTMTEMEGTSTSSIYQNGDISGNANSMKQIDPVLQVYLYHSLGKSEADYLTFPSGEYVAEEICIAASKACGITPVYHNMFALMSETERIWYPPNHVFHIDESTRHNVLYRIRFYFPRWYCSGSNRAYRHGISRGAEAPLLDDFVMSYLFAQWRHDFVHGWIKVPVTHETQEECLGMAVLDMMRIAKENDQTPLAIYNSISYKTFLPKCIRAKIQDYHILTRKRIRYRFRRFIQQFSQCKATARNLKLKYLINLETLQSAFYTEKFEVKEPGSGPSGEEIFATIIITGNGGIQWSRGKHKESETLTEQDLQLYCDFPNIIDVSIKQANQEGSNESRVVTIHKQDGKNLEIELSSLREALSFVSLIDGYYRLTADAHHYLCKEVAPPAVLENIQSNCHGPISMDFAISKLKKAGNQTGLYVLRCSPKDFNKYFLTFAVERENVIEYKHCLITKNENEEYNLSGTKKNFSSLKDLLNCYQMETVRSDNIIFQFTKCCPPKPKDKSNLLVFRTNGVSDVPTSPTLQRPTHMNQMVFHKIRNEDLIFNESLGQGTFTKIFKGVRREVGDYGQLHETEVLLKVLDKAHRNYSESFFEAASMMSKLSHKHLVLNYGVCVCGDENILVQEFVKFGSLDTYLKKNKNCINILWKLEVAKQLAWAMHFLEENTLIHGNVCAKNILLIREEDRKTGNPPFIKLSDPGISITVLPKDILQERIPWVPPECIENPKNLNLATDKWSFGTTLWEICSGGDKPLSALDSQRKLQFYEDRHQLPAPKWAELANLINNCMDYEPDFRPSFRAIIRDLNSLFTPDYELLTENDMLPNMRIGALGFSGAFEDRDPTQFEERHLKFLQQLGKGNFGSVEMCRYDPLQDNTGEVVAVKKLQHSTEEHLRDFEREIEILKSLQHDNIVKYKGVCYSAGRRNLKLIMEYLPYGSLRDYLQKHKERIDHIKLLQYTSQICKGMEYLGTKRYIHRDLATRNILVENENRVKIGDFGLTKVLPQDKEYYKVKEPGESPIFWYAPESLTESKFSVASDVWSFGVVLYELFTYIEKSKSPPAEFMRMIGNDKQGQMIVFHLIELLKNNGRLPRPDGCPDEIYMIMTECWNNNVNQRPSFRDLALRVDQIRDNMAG
T2 sequence (P08684 whole entry): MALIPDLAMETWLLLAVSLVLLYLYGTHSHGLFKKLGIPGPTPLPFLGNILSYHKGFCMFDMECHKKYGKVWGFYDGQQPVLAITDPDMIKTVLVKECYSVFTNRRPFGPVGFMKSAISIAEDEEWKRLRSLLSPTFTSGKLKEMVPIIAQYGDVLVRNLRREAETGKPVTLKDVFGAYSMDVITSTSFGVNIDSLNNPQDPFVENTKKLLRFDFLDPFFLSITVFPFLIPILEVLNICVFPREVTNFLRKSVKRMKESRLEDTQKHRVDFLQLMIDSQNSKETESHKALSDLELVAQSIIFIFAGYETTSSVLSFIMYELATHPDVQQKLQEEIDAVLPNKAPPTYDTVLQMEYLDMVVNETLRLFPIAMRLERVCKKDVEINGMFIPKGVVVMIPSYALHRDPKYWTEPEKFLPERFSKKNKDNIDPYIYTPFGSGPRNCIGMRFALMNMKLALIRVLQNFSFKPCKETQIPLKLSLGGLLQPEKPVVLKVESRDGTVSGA
T4 sequence (P23458 whole entry, one chain of several): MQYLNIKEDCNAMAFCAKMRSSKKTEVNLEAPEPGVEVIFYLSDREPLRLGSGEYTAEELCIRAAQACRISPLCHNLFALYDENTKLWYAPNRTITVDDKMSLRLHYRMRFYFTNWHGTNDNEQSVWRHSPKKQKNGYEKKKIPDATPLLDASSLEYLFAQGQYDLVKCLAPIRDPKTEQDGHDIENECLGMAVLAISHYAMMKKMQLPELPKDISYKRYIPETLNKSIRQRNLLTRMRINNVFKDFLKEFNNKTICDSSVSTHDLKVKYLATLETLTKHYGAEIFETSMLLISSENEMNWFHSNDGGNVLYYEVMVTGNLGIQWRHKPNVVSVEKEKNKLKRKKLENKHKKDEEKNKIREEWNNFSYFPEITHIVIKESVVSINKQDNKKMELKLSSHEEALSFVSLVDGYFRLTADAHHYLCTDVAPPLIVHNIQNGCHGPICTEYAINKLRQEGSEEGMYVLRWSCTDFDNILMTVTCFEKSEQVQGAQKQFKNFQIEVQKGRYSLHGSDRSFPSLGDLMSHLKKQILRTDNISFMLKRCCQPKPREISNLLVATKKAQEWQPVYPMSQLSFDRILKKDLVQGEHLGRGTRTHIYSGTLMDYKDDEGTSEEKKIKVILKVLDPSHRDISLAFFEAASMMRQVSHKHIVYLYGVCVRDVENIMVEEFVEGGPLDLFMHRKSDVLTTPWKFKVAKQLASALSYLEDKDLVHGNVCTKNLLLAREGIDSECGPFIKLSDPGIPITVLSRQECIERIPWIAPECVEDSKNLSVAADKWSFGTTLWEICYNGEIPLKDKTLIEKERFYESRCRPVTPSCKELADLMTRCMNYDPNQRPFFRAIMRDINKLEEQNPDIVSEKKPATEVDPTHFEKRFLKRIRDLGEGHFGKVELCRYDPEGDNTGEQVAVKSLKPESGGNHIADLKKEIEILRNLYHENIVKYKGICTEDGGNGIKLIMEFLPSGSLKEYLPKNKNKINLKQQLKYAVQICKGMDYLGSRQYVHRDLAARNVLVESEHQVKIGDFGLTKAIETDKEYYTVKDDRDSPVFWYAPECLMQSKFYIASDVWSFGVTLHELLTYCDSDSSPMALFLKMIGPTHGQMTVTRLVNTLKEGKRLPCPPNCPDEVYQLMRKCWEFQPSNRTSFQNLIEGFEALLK
Chain of JAK2/TYK2 (O60674 whole entry): as the sequence (O60674 whole entry) above
Chain of JAK2/TYK2 (P29597 whole entry): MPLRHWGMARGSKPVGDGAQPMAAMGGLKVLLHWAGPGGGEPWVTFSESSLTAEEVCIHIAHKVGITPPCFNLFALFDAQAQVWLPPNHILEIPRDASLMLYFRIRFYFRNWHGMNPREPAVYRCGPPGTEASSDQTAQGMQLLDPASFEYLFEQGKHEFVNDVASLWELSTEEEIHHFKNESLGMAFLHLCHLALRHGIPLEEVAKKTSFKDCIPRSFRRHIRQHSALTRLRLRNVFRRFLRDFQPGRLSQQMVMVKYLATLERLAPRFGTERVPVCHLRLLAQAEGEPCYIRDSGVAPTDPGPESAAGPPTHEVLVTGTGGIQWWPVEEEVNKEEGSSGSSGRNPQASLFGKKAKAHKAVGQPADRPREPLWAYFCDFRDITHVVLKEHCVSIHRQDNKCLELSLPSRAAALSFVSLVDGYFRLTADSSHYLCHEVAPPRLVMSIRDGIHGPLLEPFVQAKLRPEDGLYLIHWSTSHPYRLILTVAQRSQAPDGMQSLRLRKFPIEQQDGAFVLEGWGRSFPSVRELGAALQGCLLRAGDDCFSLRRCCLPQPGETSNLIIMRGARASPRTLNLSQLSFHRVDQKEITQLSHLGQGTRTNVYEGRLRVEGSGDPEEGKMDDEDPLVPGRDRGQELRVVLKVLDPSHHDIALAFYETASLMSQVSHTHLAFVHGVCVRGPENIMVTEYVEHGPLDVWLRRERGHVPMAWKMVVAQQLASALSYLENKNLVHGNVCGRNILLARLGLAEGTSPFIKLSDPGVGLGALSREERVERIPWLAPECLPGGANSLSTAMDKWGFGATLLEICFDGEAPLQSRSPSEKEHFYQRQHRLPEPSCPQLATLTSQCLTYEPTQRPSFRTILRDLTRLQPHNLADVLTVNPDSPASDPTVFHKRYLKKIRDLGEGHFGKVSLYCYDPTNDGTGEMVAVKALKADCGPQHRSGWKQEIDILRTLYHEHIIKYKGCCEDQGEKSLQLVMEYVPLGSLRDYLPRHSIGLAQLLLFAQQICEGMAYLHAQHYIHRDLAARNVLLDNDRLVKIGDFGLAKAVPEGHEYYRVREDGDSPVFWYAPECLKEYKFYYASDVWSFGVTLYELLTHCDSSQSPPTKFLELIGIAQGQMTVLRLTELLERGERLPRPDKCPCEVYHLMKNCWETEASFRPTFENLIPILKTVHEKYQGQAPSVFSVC
Chain of JAK2/JAK1 (P23458 whole entry): as the sequence (P23458 whole entry, one chain of several) above
Chain of JAK2/JAK1 (O60674 whole entry): as the sequence (O60674 whole entry) above
Chain of Tyrosine-protein kinase JAK1 (P23458 whole entry, the tested form may be a part): as the sequence (P23458 whole entry, one chain of several) above
Chain of JAK1/TYK2 (P23458 whole entry): as the sequence (P23458 whole entry, one chain of several) above
Chain of JAK1/TYK2 (P29597 whole entry): as the sequence (P29597 whole entry) above
Chain of Non-receptor tyrosine-protein kinase TYK2 (P29597 whole entry, the tested form may be a part): as the sequence (P29597 whole entry) above

SMILES: Cc1cnc(Nc2ccc(NS(C)(=O)=O)cc2)nc1Nc1ccc2oc(=O)[nH]c2c1
- inhibition in vivo at 40 mg/kg [1]: 8%

SMILES: Cc1cnc(Nc2cccc(S(N)(=O)=O)c2)nc1Nc1ccc2c(c1)NC(=O)CO2
- IC50 [5]: 700 nM

SMILES: Cc1cnc(Nc2cccc(S(C)(=O)=O)c2)nc1Nc1ccc2oc(=O)[nH]c2c1
- inhibition in vivo at 40 mg/kg [1]: 56%

SMILES: Cc1cnc(Nc2cccc(S(N)(=O)=O)c2)nc1Nc1ccc2oc(=O)[nH]c2c1
- IC50 [5]: 5000 nM
- inhibition in vivo at 40 mg/kg [1]: 30%

SMILES: COc1cc(Nc2ncc(C)c(Nc3ccc4oc(=O)[nH]c4c3)n2)cc(OC)c1
- IC50 [2]: 132 nM

SMILES: Cc1cnc(Nc2cccc(NS(C)(=O)=O)c2)nc1Nc1ccc2oc(=O)[nH]c2c1
- inhibition in vivo at 40 mg/kg [1]: 15%

SMILES: Cc1cnc(Nc2cccc(C#N)c2)nc1Nc1ccc2oc(=O)[nH]c2c1
- inhibition in vivo at 40 mg/kg [1]: 1%

Now from value to molecule, other results behind:

- IC50 [3]: > 10000 nM
- IC50 [4]: 700 nM
SMILES: Cc1cnc(Nc2ccc(F)c(C(F)(F)F)c2)nc1Nc1ccc2oc(=O)[nH]c2c1
- IC50 [2]: 503 nM

- IC50 [3]: > 10000 nM
- IC50 [4]: 8000 nM
SMILES: COc1cc(CF)cc(Nc2ncc(C)c(Nc3ccc4oc(=O)[nH]c4c3)n2)c1
- IC50 [2]: 170 nM

- IC50 [6]: 20 nM
- IC50 [3]: > 10000 nM
- IC50 [4]: > 10000 nM
- Ki [8]: 1000 nM
- IC50 [9]: 2.1 nM
- IC50 [11]: 923 nM
- IC50 [12]: 12 nM
- IC50 [13]: 20 nM
- IC50 [14]: 8 nM
- IC50 [16]: 1190 nM
- IC50 [17]: 417 nM
- bioavailability [21]: 28%
- clearance [22]: 47 mL/min/kg
- IC50 [23]: 451 nM
SMILES: COc1cc(Nc2ncc(C)c(Nc3ccc4oc(=O)[nH]c4c3)n2)cc(C)c1F [IFIDANCITINIB]
- inhibition in vivo at 40 mg/kg [1]: 92%
- IC50 [2]: 490 nM
- inhibition in vivo at 5 mg/kg [7]: 43%
- IC50 [10]: 12 nM
- IC50 [15]: 915 nM
- inhibition in vivo at 20 mg/kg [18]: 94%
- inhibition in vivo at 10 mg/kg [19]: 75%
- inhibition in vivo at 2.5 mg/kg [20]: 8%

- Ratio IC50 [24]: 24
- inhibition [25]: < 50%
SMILES: COc1cc(Nc2ncc(C)c(Nc3ccc4oc(=O)[nH]c4c3)n2)cc(C)c1F
